Data as given in the NIST ThermoML archive (doi:10.1021/acs.jced.7b00236).
“And” between values parts separate entries of the source, which are not always exact repeats. Identical values can stand only once. Numbers after ± are expanded uncertainties.

Details: Liquid, Ebulliometric method (Recirculating still)

CC(C)CC(C)(C)C [2,2,4-trimethylpentane]
vapor or sublimation pressure (303.15 K): 8.33 ± 0.14 kPa | vapor or sublimation pressure (308.15 K): 10.44 ± 0.14 kPa | vapor or sublimation pressure (313.15 K): 12.97 ± 0.14 kPa | vapor or sublimation pressure (318.15 K): 15.98 ± 0.15 kPa | vapor or sublimation pressure (323.15 K): 19.54 ± 0.15 kPa

CCOC(=O)OCC [diethyl carbonate]
vapor or sublimation pressure (303.15 K): 1.95 ± 0.14 kPa and 1.99 ± 0.14 kPa | vapor or sublimation pressure (308.15 K): 2.61 ± 0.14 kPa and 2.65 ± 0.14 kPa | vapor or sublimation pressure (313.15 K): 3.43 ± 0.14 kPa and 3.45 ± 0.14 kPa | vapor or sublimation pressure (318.15 K): 4.46 ± 0.14 kPa and 4.51 ± 0.14 kPa | vapor or sublimation pressure (323.15 K): 5.75 ± 0.14 kPa and 5.83 ± 0.14 kPa

CCCCCCC [heptane]
vapor or sublimation pressure (303.15 K): 7.79 ± 0.14 kPa | vapor or sublimation pressure (308.15 K): 9.85 ± 0.14 kPa | vapor or sublimation pressure (313.15 K): 12.34 ± 0.14 kPa | vapor or sublimation pressure (318.15 K): 15.33 ± 0.15 kPa | vapor or sublimation pressure (323.15 K): 18.9 ± 0.15 kPa

Cc1ccccc1 [toluene]
vapor or sublimation pressure (303.15 K): 4.87 ± 0.14 kPa | vapor or sublimation pressure (308.15 K): 6.32 ± 0.14 kPa | vapor or sublimation pressure (313.15 K): 7.78 ± 0.14 kPa | vapor or sublimation pressure (318.15 K): 9.89 ± 0.14 kPa | vapor or sublimation pressure (323.15 K): 12.27 ± 0.14 kPa
